Test results as given in PubChem BioAssay AID1963867 (Molecular Pharmacology Branch, DTP, NCI, 2024).
pIC50: −log10 of the molar value.

Tested on: KRAS-mutant PDC tumor spheroid with HUVEC/MSC, viability
Test: Anticancer human tumor 327498-153-R-J2-PDC patient-derived uterine carcinosarcoma cell line growth inhibition [KRAS2]
Conditions: for pIC50: curve of first compound; for viability, T/C: stronger effect = lower value
Text: Multicellular complex tumor spheroid response to RAS pathway inhibitors in combination with a targeted agents in patient-derived cell lines with oncogenic KRAS variants from multiple cancer types
A high-throughput screen of multi-cell type tumor spheroids was designed to identify active combinations of targeted small molecules and KRAS pathway inhibitors. Complex spheroids include a stromal component modeled by human endothelial cells (HUVEC) and fibroblasts modeled by human mesenchymal stem cells (MSCs). The concentration ranges selected for each drug and investigational agent were based upon clinically achievable concentrations if the clinical Cmax of the agent was known.
Compounds. The drugs and investigational agents: BI-3406 (NSC825286), BAY-293 (NSC824723), batoprotafib (TNO155; NSC825523), sotorasib (AMG 510; NSC818433), MRTX1257 (NSC819558), elimusertib (BAY 1895344; NSC800525), molibresib (GSK525762; NSC774829), temuterkib (LY3214996; NSC803410), venetoclax (NSC766270), alisertib (NSC759677), olaparib (NSC753686), talazoparib (NSC767125), erdafitinib (NSC781556), ipatasertib (NSC767898), cabozantinib (NSC761068), nintedanib (NSC756659), abemaciclib (NSC768073), docetaxel (NSC628503), trametinib (NSC758246), and sapanisertib (NSC764658) were obtained from the National Cancer Institute (NCI) Developmental Therapeutics Program Chemical Repository. The FDA-approved anticancer drug set is available from the Developmental Therapeutics Program. […] The stock solutions were prepared in dimethyl sulfoxide (DMSO, Sigma-Aldrich, St. Louis, MO, cat. D2650) at 800-fold the tested concentration and stored at -70 degrees C prior to their use. All drugs and investigational agents were tested over a range starting from a high concentration at or near the clinical Cmax and decreasing in half-log increments. If the clinical Cmax for an agent had not been determined, the highest concentration tested was 10 microM.
Cell Culture. All cells were maintained in an incubator at 37 degrees C and 5% CO2 with 95% humidity. The PDC lines were cultured according to standard operating procedures established by the NCI PDMR (https://pdmr.cancer.gov/sops/default.htm). Briefly, all PDCs were thawed and cultured in Matrigel-coated flasks prepared with a working solution of 1X Ham's F-12 nutrient mix, without supplementation (Invitrogen, Waltham, MA, cat. 11765054), 100 U/mL penicillin-streptomycin (Invitrogen, cat. 15140122), and 2.5% Matrigel (Corning Inc., Corning, NY, cat. 354248) for the first three passages. All PDCs were cultured in complete DMEM/F-12 media containing advanced DMEM/F-12 (Invitrogen, cat. 12634028), 4.9% defined fetal bovine serum, heat inactivated (HyClone Laboratories Inc., Logan, UT, cat. SH30070.03HI), 389 ng/mL hydrocortisone (Sigma-Aldrich, cat. H4001), 9.7 ng/mL human EGF recombinant protein (Invitrogen, cat. PHG0313), 23.4 microg/mL adenine (Sigma-Aldrich, cat. A2786), 97.3 U/mL penicillin-streptomycin (Invitrogen, cat. 15140122), 1.9 mM L-glutamine (Invitrogen, cat. 25030081), and 9.7 microM Y-27632 dihydrochloride (Tocris Bioscience, Bristol, United Kingdom, cat. 1254). The PDCs were cultured in complete DMEM/F12 media without 9.7 microM Y-27632 dihydrochloride for at least two passages prior to the screen. The established cell line HOP-62 was cultured in RPMI 1640 medium, HEPES (Invitrogen, cat. 22400105) with 10% defined fetal bovine serum (HyClone Laboratories Inc., cat. SH30070.03) and 2 mM L-glutamine (Invitrogen, cat. 25030081). The pooled donor HUVEC were cultured in endothelial cell growth medium 2 (PromoCell, Heidelberg, Germany, cat. C-22011) and the hMSC were cultured in mesenchymal stem cell growth medium 2 (PromoCell, cat. C-28009). For all experiments, HUVEC and hMSC were used at passages </=5, while the malignant cell lines were used at passages </=15. […]

[1] = second compound 0.1 µM, first compound 0.0316 µM
[2] = second compound 0.1 µM, first compound 0.1 µM
[3] = second compound 0.1 µM, first compound 0.316 µM
[4] = second compound 0.1 µM, first compound 1 µM
[5] = second compound 0.1 µM, first compound 3.16 µM
[6] = second compound 0.316 µM, first compound 0.0316 µM
[7] = second compound 0.316 µM, first compound 0.1 µM
[8] = second compound 0.316 µM, first compound 0.316 µM
[9] = second compound 0.316 µM, first compound 1 µM
[10] = second compound 0.316 µM, first compound 3.16 µM
[11] = second compound 1 µM, first compound 0.0316 µM
[12] = second compound 1 µM, first compound 0.1 µM
[13] = second compound 1 µM, first compound 0.316 µM
[14] = second compound 1 µM, first compound 1 µM
[15] = second compound 1 µM, first compound 3.16 µM
[16] = second compound 3.16 µM, first compound 0.0316 µM
[17] = second compound 3.16 µM, first compound 0.1 µM
[18] = second compound 3.16 µM, first compound 0.316 µM
[19] = second compound 3.16 µM, first compound 1 µM
[20] = second compound 3.16 µM, first compound 3.16 µM
[21] = second compound 10 µM, first compound 0.0316 µM
[22] = second compound 10 µM, first compound 0.1 µM
[23] = second compound 10 µM, first compound 0.316 µM
[24] = second compound 10 µM, first compound 1 µM
[25] = second compound 10 µM, first compound 3.16 µM
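Further: spheroids exposed to agents for seven days before reading.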
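Wherever viability, T/C is given: 100% = DMSO vehicle wells so lower means fewer viable cells.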

Row | SMILES | pIC50 (second compound 0.1 µM) | pIC50 (second compound 0.316 µM) | pIC50 (second compound 1 µM) | pIC50 (second compound 3.16 µM) | pIC50 (second compound 10 µM) | viability, T/C [1] [%] | viability, T/C [2] [%] | viability, T/C [3] [%] | viability, T/C [4] [%] | viability, T/C [5] [%] | viability, T/C [6] [%] | viability, T/C [7] [%] | viability, T/C [8] [%] | viability, T/C [9] [%] | viability, T/C [10] [%] | viability, T/C [11] [%] | viability, T/C [12] [%] | viability, T/C [13] [%] | viability, T/C [14] [%] | viability, T/C [15] [%] | further results
1 | O=C(c1cc(Cc2n[nH]c(=O)c3ccccc23)ccc1F)N1CCN(C(=O)C2CC2)CC1 + CNCc1ccccc1-c1csc(C(C)Nc2nc(C)nc3cc(OC)c(OC)cc23)c1 | 5.69 | 5.74 | 5.76 | 6.39 | > 7.50 | 83.4 | 80.3 | 82.8 | 73.6 | 36.1 | 86.6 | 87.4 | 76.7 | 69.5 | 32.4 | 90.8 | 81.8 | 81.3 | 66.3 | 33.2 | viability, T/C (second compound 0.1 µM, first compound 10 µM): 19.2%; viability, T/C (second compound 0.316 µM, first compound 10 µM): 19.1%; viability, T/C (second compound 1 µM, first compound 10 µM): 19.1%; viability, T/C [16]: 57.7%; viability, T/C [17]: 67.8%; viability, T/C [18]: 62%; viability, T/C [19]: 0.7%; viability, T/C [20]: 25.9%; viability, T/C (second compound 3.16 µM, first compound 10 µM): 0.17%; viability, T/C [21]: 2.32%; viability, T/C [22]: 0.2%; viability, T/C [23]: 1.62%; viability, T/C [24]: 0.19%; viability, T/C [25]: 0.15%; viability, T/C (second compound 10 µM, first compound 10 µM): 1.22%
2 | CC(=O)OC12COC1CC(O)C1(C)C(=O)C(O)C3=C(C)C(OC(=O)C(O)C(NC(=O)OC(C)(C)C)c4ccccc4)CC(O)(C(OC(=O)c4ccccc4)C21)C3(C)C (stereo not given) + COc1cc2nc(C)nc(NC(C)c3cc(N)cc(C(F)(F)F)c3)c2cc1OC1CCOC1 | > 8.00 | > 8.00 | > 8.00 | > 8.00 | > 8.00 | 6.47 | 7.11 | 7.15 | 9.33 | 13.3 | 5.72 | 6.66 | 6.34 | 9.71 | 13.2 | 5.99 | 6.32 | 6.76 | 8.86 | 11.6 | viability, T/C (second compound 0.1 µM, first compound 0.01 µM): 8.2%; viability, T/C (second compound 0.316 µM, first compound 0.01 µM): 7.68%; viability, T/C (second compound 1 µM, first compound 0.01 µM): 7.84%; viability, T/C (second compound 3.16 µM, first compound 0.01 µM): 10.3%; viability, T/C [16]: 5.59%; viability, T/C [17]: 6.6%; viability, T/C [18]: 6.36%; viability, T/C [19]: 9.6%; viability, T/C [20]: 12.6%; viability, T/C (second compound 10 µM, first compound 0.01 µM): 6.87%; viability, T/C [21]: 6.05%; viability, T/C [22]: 7.37%; viability, T/C [23]: 9.15%; viability, T/C [24]: 13.1%; viability, T/C [25]: 11.8%
